Measurements: patent US9969775B2, “CGRP antagonist peptides” (Ferring B.V., priority 2015, dated 2018)
Like-named read-outs stand apart in the source and are kept apart here. Bridge positions count the residues as written; N and C are the ends. Square brackets hold non-standard residues; d marks the D form. Side chains are listed from the residue outwards. Peptide text beside a SMILES is read from it. * marks the point of attachment. Phe(2-CONH2) = NC(=O)c1ccccc1C[C@H](N)C(=O)O; Phe(4-CH2NH2) = NCc1ccc(C[C@H](N)C(=O)O)cc1; Picolinoyl(3,5-F2) = O=C(c1ncc(F)cc1F)*; Picolinoyl(5-F) = O=C(c1ccc(F)cn1)*; Lys(Me2) = CN(C)CCCC[C@H](N)C(=O)O; Orn(iPr) = CC(C)NCCC[C@H](N)C(=O)O; Benzoyl(4-F) = O=C(c1ccc(F)cc1)*; Oxazole2carbonyl = O=C(c1ncco1)*; 3Pal = N[C@@H](Cc1cccnc1)C(=O)O; Pyrrole2CO = O=C(c1ccc[nH]1)*; Agp = N=C(N)NC[C@H](N)C(=O)O; Picolinoyl = O=C(c1ccccn1)*; ΔPro = O=C(O)[C@@H]1C=CCN1; Orn = NCCC[C@H](N)C(=O)O; Dap = NC[C@H](N)C(=O)O; X7 = O=C(c1cc(F)ccn1)*; AEEA = NCCOCCOCC(=O)O; X6 = O=C(c1ccncn1)*

Legend:
[1] = target: T1, hCGRP receptor (CALCRL:RAMP1) (Homo sapiens, UniProt O60894+Q16602); assay: CGRP receptor antagonist activity measured by cAMP assay (HTRF); assay type: cell-based; details: for IC50: GeneBLAzer CALCRL:RAMP1-CRE-bla Freestyle 293F cells, 30 minutes; for Emax: read-out: hCGRP-R Efficacy Antag (%) Ave
T1 construct: host or cells: GeneBLAzer CALCRL:RAMP1-CRE-bla Freestyle 293F

[2] = target: T2, hAM2 receptor (CALCRL:RAMP3) (Homo sapiens, UniProt O60896+Q16602); assay: AM2 receptor antagonist activity measured by cAMP assay (HTRF); assay type: cell-based; details: for IC50: GeneBLAzer CALCRL:RAMP3-CRE-bla Freestyle 293F cells; for Emax: read-out: hAM2-R Efficacy Antag (%) Ave; for selectivity ratio CGRP/AM2: selectivity ratio for hCGRP over hAM2, calculated from the IC50 values
T2 construct: expressed in transfected cells; host or cells: GeneBLAzer CALCRL:RAMP3-CRE-bla Freestyle 293F
Method: Antagonist activity for the adrenomedullin receptor AM2 was determined using the method described in Example 6 above, with the following modifications. Instead of GeneBLAzer® CALCRL:RAMP1-CRE-bla Freestyle™ 293F cells, GeneBLAzer® CALCRL:RAMP3-CRE-bla Freestyle™ 293F cells were used to test activity at hAM2 receptors. The agonist was human adrenomedullin, instead of α-CGRP.
In Table 5, the selectivity ratio for hCGRP over hAM2 is calculated as hCGRP-R IC50/hAM2-R IC50.

[3] = % MPE: percent of the maximal possible effect, agonist human α-CGRP
[4] = % MPE: percent of the maximal possible effect, agonist human adrenomedullin
[5] = agonist human α-CGRP, read-out: hCGRP-R IC50 Ave
[6] = agonist human adrenomedullin, read-out: hAM2-R IC50 Ave

T1 sequence (Q16602 23-461): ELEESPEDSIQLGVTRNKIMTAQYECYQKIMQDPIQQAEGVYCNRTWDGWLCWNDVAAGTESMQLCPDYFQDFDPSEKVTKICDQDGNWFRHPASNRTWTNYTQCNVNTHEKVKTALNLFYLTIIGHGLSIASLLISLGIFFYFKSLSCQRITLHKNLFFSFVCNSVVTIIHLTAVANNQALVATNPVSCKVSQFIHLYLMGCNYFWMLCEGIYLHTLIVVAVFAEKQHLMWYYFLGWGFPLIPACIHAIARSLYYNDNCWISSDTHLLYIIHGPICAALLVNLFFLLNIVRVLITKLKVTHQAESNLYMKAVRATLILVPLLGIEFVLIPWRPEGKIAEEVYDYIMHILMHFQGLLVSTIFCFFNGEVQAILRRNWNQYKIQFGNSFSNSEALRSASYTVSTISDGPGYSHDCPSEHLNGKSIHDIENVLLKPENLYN
T1 sequence (O60894 27-148): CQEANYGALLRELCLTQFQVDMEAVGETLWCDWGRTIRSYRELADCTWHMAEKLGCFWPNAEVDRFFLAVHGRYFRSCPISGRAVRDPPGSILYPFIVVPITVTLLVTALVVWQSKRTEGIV
T2 sequence (Q16602 23-461): as the sequence (Q16602 23-461) above
T2 sequence (O60896 24-148): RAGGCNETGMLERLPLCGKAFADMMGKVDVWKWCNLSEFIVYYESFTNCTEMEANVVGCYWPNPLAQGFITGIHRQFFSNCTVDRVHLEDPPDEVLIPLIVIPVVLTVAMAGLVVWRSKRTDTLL

| Compound | selectivity ratio CGRP/AM2 [2] | Emax [1, 3] [%] | Emax [2, 4] [%] | IC50 [1, 5] [nM] | IC50 [2, 6] [nM] | IC50 ([1]; hCGRP-R IC50 Ave, agonist human α-CGRP) [nM] | Emax [1] [%] | IC50 ([2]; hAM2-R IC50 Ave, agonist human adrenomedullin) [nM] | Emax [2] [%] |
| --- | --- | --- | --- | --- | --- | --- | --- | --- | --- |
| CC(C)NCCC[C@@H]1NC(=O)[C@@H](NC(=O)[C@H](Cc2ccccc2C(N)=O)NC(=O)[C@H](NC(=O)c2ncco2)C(C)C)CSSC[C@@H](C(=O)N[C@@H](Cc2cccnc2)C(N)=O)NC(=O)[C@H](Cc2cccnc2)NC(=O)[C@@H]2CCCN2C(=O)CNC(=O)[C@H](C(C)C)NC(=O)[C@H](CC(=O)O)NC1=O [Compound 40, Oxazole-2-carbonyl-D-Val-Phe(2-Cbm)-c(Cys-Orn(iPr)-Asp-Val-Gly-Pro-3Pal-Cys)-3Pal-NH2] (Oxazole2carbonyl-[dV][Phe(2-CONH2)]C[Orn(iPr)]DVGP[3Pal]C[3Pal]-NH2; disulfide 3-10) | 10884 |  |  |  |  | 0.09 | 100 | 980 | 98 |
| CC(C)[C@@H]1NC(=O)[C@H](CC(=O)O)NC(=O)[C@H](CNC(=O)COCCOCCNC(=O)COCCOCCN)NC(=O)[C@@H](NC(=O)[C@H](Cc2ccc(O)cc2)NC(=O)[C@H](NC(=O)c2ccccn2)C(C)C)CSSC[C@@H](C(=O)N[C@@H](Cc2cccnc2)C(N)=O)NC(=O)[C@H](Cc2ccccc2)NC(=O)[C@@H]2CCCN2C(=O)CNC1=O [Compound 10] (Picolinoyl-[dV]YC[Dap]([AEEA-AEEA])DVGPFC[3Pal]-NH2; disulfide 3-10) |  | 100 | 107 |  |  |  |  |  |  |
| CC(C)[C@@H]1NC(=O)[C@H](CC(=O)O)NC(=O)[C@H](CCCNC(=N)N)NC(=O)[C@@H](NC(=O)[C@H](Cc2ccc(O)cc2)NC(=O)[C@H](NC(=O)c2cc(F)ccn2)C(C)C)CSSC[C@@H](C(=O)N[C@@H](Cc2cccnc2)C(N)=O)NC(=O)[C@H](Cc2ccccc2)NC(=O)[C@@H]2CCCN2C(=O)CNC1=O [Compound 18] (X7-[dV]YCRDVGPFC[3Pal]-NH2; disulfide 3-10) | 52 | 100 | 98 | 0.16 | 8.1 |  |  |  |  |
| CC(C)[C@@H]1NC(=O)[C@H](CC(=O)O)NC(=O)[C@H](CCCNC(=N)N)NC(=O)[C@@H](NC(=O)[C@H](Cc2ccc(O)cc2)NC(=O)[C@H](NC(=O)c2ccccn2)C(C)C)CSSC[C@@H](C(=O)N[C@@H](Cc2cccnc2)C(N)=O)NC(=O)[C@H](Cc2cccnc2)NC(=O)[C@@H]2CCCN2C(=O)CNC1=O [Compound 3, Picolinoyl-D-Val-Tyr-c(Cys-Arg-Asp-Val-Gly-Pro-3Pal-Cys)-3Pal-NH2] (Picolinoyl-[dV]YCRDVGP[3Pal]C[3Pal]-NH2; disulfide 3-10) | 285 | 100 | 101 | 0.12 | 35 |  |  |  |  |
| CC(C)[C@@H]1NC(=O)[C@H](CC(=O)O)NC(=O)[C@H](CCCNC(=N)N)NC(=O)[C@@H](NC(=O)[C@H](Cc2ccc(O)cc2)NC(=O)[C@H](NC(=O)c2ccc[nH]2)C(C)C)CSSC[C@@H](C(=O)N[C@@H](Cc2cccnc2)C(N)=O)NC(=O)[C@H](Cc2ccccc2)NC(=O)[C@@H]2CCCN2C(=O)CNC1=O [Compound 49] (Pyrrole2CO-[dV]YCRDVGPFC[3Pal]-NH2; disulfide 3-10) | 461 | 100 | 99 | 0.19 | 89 |  |  |  |  |
| CC(C)[C@@H]1NC(=O)[C@H](CC(=O)O)NC(=O)[C@H](CCCNC(=N)N)NC(=O)[C@@H](NC(=O)[C@H](Cc2ccc(O)cc2)NC(=O)[C@H](NC(=O)c2ccc(F)cc2)C(C)C)CSSC[C@@H](C(=O)N[C@@H](Cc2cccnc2)C(N)=O)NC(=O)[C@H](Cc2ccc(CN)cc2)NC(=O)[C@@H]2CCCN2C(=O)CNC1=O [Compound 20, Bz(4-F)-D-Val-Tyr-c(Cys-Arg-Asp-Val-Gly-Pro-Phe(4-CH2NH2)-Cys)-3Pal-NH2] ({Benzoyl(4-F)}-[dV]YCRDVGP[Phe(4-CH2NH2)]C[3Pal]-NH2; disulfide 3-10) | 309 | 100 | 100 | 0.18 | 54 |  |  |  |  |
| CC(C)NCCC[C@@H]1NC(=O)[C@@H](NC(=O)[C@H](Cc2ccccc2C(N)=O)NC(=O)[C@H](NC(=O)c2ccc(F)cn2)C(C)C)CSSC[C@@H](C(=O)N[C@@H](Cc2cccnc2)C(N)=O)NC(=O)[C@H](Cc2cccnc2)NC(=O)[C@@H]2CCCN2C(=O)CNC(=O)[C@H](C(C)C)NC(=O)[C@H](CC(=O)O)NC1=O [Compound 39, Picolinoyl(5-F)-D-Val-Phe(2-Cbm)-c(Cys-Orn(iPr)-Asp-Val-Gly-Pro-3Pal-Cys)-3Pal-NH2] ({Picolinoyl(5-F)}-[dV][Phe(2-CONH2)]C[Orn(iPr)]DVGP[3Pal]C[3Pal]-NH2; disulfide 3-10) | 2125 | 100 | 101 | 0.13 | 275 |  |  |  |  |
| CC(C)[C@@H]1NC(=O)[C@H](CC(=O)O)NC(=O)[C@H](CCCNC(=O)[C@@H](N)CCCCN(C)C)NC(=O)[C@@H](NC(=O)[C@H](Cc2ccc(O)cc2)NC(=O)[C@H](NC(=O)c2ccncn2)C(C)C)CSSC[C@@H](C(=O)N[C@@H](Cc2cccnc2)C(N)=O)NC(=O)[C@H](Cc2ccccc2)NC(=O)[C@@H]2CCCN2C(=O)CNC1=O [Compound 45, Pyrimidine-4-carbonyl-D-Val-Tyr-c(Cys-Orn(Lys(Me2))-Asp-Val-Gly-Pro-Phe-Cys)-3Pal-NH2] (X6-[dV]YC[Orn](Lys(Me2))DVGPFC[3Pal]-NH2; disulfide 3-10) | 1082 | 100 | 98 | 0.18 | 198 |  |  |  |  |
| CC(C)[C@@H]1NC(=O)[C@H](CC(=O)O)NC(=O)[C@H](CCCNC(=N)N)NC(=O)[C@@H](NC(=O)[C@H](Cc2ccc(O)cc2)NC(=O)[C@H](NC(=O)c2ccc(F)cc2)C(C)C)CSSC[C@@H](C(=O)N[C@@H](Cc2cccnc2)C(N)=O)NC(=O)[C@H](Cc2ccccc2)NC(=O)[C@@H]2CCCN2C(=O)CNC1=O [Compound 1] ({Benzoyl(4-F)}-[dV]YCRDVGPFC[3Pal]-NH2; disulfide 3-10) | 362 | 100 | 101 | 0.14 | 52 |  |  |  |  |
| CC(C)[C@@H]1NC(=O)[C@H](CC(=O)O)NC(=O)[C@H](CCCNC(=N)N)NC(=O)[C@@H](NC(=O)[C@H](Cc2ccc(O)cc2)NC(=O)[C@H](NC(=O)c2ncc(F)cc2F)C(C)C)CSSC[C@@H](C(=O)N[C@@H](Cc2cccnc2)C(N)=O)NC(=O)[C@H](Cc2ccccc2)NC(=O)[C@@H]2CCCN2C(=O)CNC1=O [Compound 35] ({Picolinoyl(3,5-F2)}-[dV]YCRDVGPFC[3Pal]-NH2; disulfide 3-10) | 580 | 100 | 101 | 0.06 | 33 |  |  |  |  |

More lines, main results first:

| selectivity ratio CGRP/AM2 [2] | Emax [1, 3] [%] | Emax [2, 4] [%] | IC50 [1, 5] [nM] | IC50 [2, 6] [nM] | Compound | IC50 ([1]; hCGRP-R IC50 Ave, agonist human α-CGRP) [nM] | Emax [1] [%] | IC50 ([2]; hAM2-R IC50 Ave, agonist human adrenomedullin) [nM] | Emax [2] [%] |
| --- | --- | --- | --- | --- | --- | --- | --- | --- | --- |
| 1027 | 101 | 100 | 0.08 | 84 | CC(C)NCCC[C@@H]1NC(=O)[C@@H](NC(=O)[C@H](Cc2ccccc2C(N)=O)NC(=O)[C@H](NC(=O)c2ccc(F)cn2)C(C)C)CSSC[C@@H](C(=O)N[C@@H](Cc2cccnc2)C(N)=O)NC(=O)[C@H](Cc2ccccc2C(N)=O)NC(=O)[C@@H]2C=CCN2C(=O)CNC(=O)[C@H](C(C)C)NC(=O)[C@H](CC(=O)O)NC1=O [Compound 66, Picolinoyl(5-F)-D-Val-Phe(2-Cbm)-c(Cys-Orn(iPr)-Asp-Val-Gly-Dhp-Phe(2-Cbm)-Cys)-3Pal-NH2] ({Picolinoyl(5-F)}-[dV][Phe(2-CONH2)]C[Orn(iPr)]DVG[ΔPro][Phe(2-CONH2)]C[3Pal]-NH2; disulfide 3-10) |  |  |  |  |
| 592 | 100 | 100 | 0.14 | 85 | CC(C)NCCC[C@@H]1NC(=O)[C@@H](NC(=O)[C@H](Cc2ccc(O)cc2)NC(=O)[C@H](NC(=O)c2ncc(F)cc2F)C(C)C)CSSC[C@@H](C(=O)N[C@@H](Cc2cccnc2)C(N)=O)NC(=O)[C@H](Cc2ccccc2)NC(=O)[C@@H]2CCCN2C(=O)CNC(=O)[C@H](C(C)C)NC(=O)[C@H](CC(=O)O)NC1=O [Compound 62, Picolinoyl(3,5-F2)-D-Val-Tyr-c(Cys-Orn(iPr)-Asp-Val-Gly-Pro-Phe-Cys)-3Pal-NH2] ({Picolinoyl(3,5-F2)}-[dV]YC[Orn(iPr)]DVGPFC[3Pal]-NH2; disulfide 3-10) |  |  |  |  |
|  | 100 | 98 |  |  | CC(C)[C@@H]1NC(=O)[C@H](CC(=O)O)NC(=O)[C@H](CNC(=N)N)NC(=O)[C@@H](NC(=O)[C@H](Cc2ccc(O)cc2)NC(=O)[C@H](NC(=O)c2ccc(F)cc2)C(C)C)CSSC[C@@H](C(=O)N[C@@H](Cc2cccnc2)C(N)=O)NC(=O)[C@H](Cc2ccccc2)NC(=O)[C@@H]2CCCN2C(=O)CNC1=O [Ref. Cpd. 1, Bz(4-F)-D-Val-Tyr-c(Cys-Agp-Asp-Val-Gly-Pro-Phe-Cys)-3Pal-NH2, reference compound] ({Benzoyl(4-F)}-[dV]YC[Agp]DVGPFC[3Pal]-NH2; disulfide 3-10) |  |  |  |  |
| 2588 | 100 | 99 | 0.18 | 476 | CC(C)NCCC[C@@H]1NC(=O)[C@@H](NC(=O)[C@H](Cc2ccccc2C(N)=O)NC(=O)[C@H](NC(=O)c2ncco2)C(C)C)CSSC[C@@H](C(=O)N[C@@H](Cc2cccnc2)C(N)=O)NC(=O)[C@H](Cc2cccnc2)NC(=O)[C@@H]2C=CCN2C(=O)CNC(=O)[C@H](C(C)C)NC(=O)[C@H](CC(=O)O)NC1=O [Compound 58, Oxazole-2-carbonyl-D-Val-Phe(2-Cbm)-c(Cys-Orn(iPr)-Asp-Val-Gly-Dhp-3Pal-Cys)-3Pal-NH2] (Oxazole2carbonyl-[dV][Phe(2-CONH2)]C[Orn(iPr)]DVG[ΔPro][3Pal]C[3Pal]-NH2; disulfide 3-10) |  |  |  |  |
